{
  "source": "patent US10012641B2",
  "about": "“G-protein-coupled-receptor-22-transformed cell lines and methods of use thereof to identify binding compounds” (LIBRAMEN NATURALS INC., priority 2014, dated 2018)",
  "key": {"GPCR22 [1]": {"target": "T1, GPCR22 (Rattus norvegicus, UniProt D4A3U0)", "T1 sequence (D4A3U0 whole entry)": "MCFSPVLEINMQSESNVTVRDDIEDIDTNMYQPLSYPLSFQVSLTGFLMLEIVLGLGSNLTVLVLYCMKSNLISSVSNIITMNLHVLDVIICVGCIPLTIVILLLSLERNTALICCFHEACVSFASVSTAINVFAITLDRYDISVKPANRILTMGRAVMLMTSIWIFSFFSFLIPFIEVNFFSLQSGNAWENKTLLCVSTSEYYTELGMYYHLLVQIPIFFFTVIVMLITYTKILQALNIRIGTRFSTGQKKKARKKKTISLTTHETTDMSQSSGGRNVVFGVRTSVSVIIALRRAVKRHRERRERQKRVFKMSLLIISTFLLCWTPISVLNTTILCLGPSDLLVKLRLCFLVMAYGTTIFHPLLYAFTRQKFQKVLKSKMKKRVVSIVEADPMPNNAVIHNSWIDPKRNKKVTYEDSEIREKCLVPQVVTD", "experiment": "Fluo-4 AM imaging of intracellular Ca2+ in GPCR22-transfected S2 cells", "assay_type": "cell-based", "parameters": "expressed in transfected cells; host or cells: Drosophila Schneider 2 (S2) cells, pMT-V5-HisA vector, CuSO4 induction", "method": "(§1) Fluo-4 AM calcium imaging was used to visualize intracellular calcium concentration in the GPRC22-transfected and non-transfected S2 cells. A 2.5 mM stock solution of Fluo-4 Am dye (molecular Probes, Burlington, ON) was prepared in DMSO and 20% Pluronic F-127 and used to within a week. The S2 cell preparations were incubated with a final concentration of 5 μM fluo-4AM and 0.02% Pluronic F-127 in 1 ml S2 culture medium for 20 min at room temperature, then washed to allow for full de-esterification of AM esters. Imaging was carried out on an upright Nikon Eclipse FN-S2N upright fluorescence microscope using 10×/40× objectives with a filter to excite Fluo-4, a dye at 488 nm wavelength (peak excitation=494 nm and peak emission=516 nm) using a Lambda DG-4 illuminator (Sutter Instrument Co., Novato, Calif., USA). Images were captured using a Quantem 512SC camera with a frame rate of 5-10 frames per second and Nikon-NIS Elements, advanced research, imaging software. Intracellular calcium concentration was created in the Nikon-NIS elements program using regions of interest (ROIs) per each experiment. ROIs were selected free hand and encompassed the cell body to be analyzed. The ROIs were tracked and the average pixel intensity was measured in that region for the duration of the recording. These measurements were then exported to Excel and Clampfit for further analysis of frequency and amplitude. Intracellular calcium concentration of S2 cells was monitored at room temperature. 20-30 S2 cells were calculated to determine the average overall fluorescence signal intracellular calcium concentration. The fluorescence intensity was presented as the ratio F1/F0 in which the raw fluorescence intensity signals of a region of interest (ROI) was compared to the first fluorescence signal in that ROI throughout the recording. The Wilcoxon matched pairs t-test was used on two samples with equal variances to determine statistically significant differences at P=0.05. In each set of experiments, the exposure protocols for control and test conditions were identical."}, "non-transfected S2 cells [2]": {"tested_on": "non-transfected S2 cells", "experiment": "Fluo-4 AM imaging of intracellular Ca2+ in non-transfected S2 cells", "assay_type": "cell-based, Drosophila", "settings": "guanosine versus vehicle, FIGS. 12a, 12d", "method": "as §1, with “Intracellular calcium concentration was created in the Nikon-NIS elements program using regions of interest (ROIs) per each experiment.” left out, “These measurements were then exported to Excel and Clampfit for further analysis of frequency and amplitude.” left out, “The fluorescence intensity was presented as the ratio F1/F0 in which the raw fluorescence intensity signals of a region of interest (ROI) was compared to the first fluorescence signal in that ROI throughout the recording. The Wilcoxon matched pairs t-test was used on two samples with equal variances to determine statistically significant differences at P=0.05. In each set of experiments, the exposure protocols for control and test conditions were identical.” left out"}, "GPCR22 [3]": {"target": "T2, GPCR22 (Homo sapiens, UniProt Q99680, C425R)", "T2 construct": "A full length cDNA clone of human GPCR22 was provided by Origene Technologies; host or cells: 1321N1 human astrocytoma cells, pCMV vector, transient", "T2 sequence (Q99680 whole entry C425R)": "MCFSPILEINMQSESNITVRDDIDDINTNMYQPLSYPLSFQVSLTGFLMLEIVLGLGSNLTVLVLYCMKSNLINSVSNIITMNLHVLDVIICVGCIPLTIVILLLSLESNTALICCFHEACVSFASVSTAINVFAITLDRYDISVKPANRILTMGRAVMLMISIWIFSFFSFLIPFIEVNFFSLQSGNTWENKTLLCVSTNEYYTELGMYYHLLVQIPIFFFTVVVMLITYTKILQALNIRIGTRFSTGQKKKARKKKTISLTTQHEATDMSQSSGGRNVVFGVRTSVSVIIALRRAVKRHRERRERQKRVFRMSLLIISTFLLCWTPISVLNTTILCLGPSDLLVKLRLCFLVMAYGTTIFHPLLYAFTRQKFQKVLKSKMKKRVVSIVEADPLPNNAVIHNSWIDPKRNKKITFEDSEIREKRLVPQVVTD", "experiment": "Erk 1/2 and Akt phosphorylation by guanosine in 1321N1 human astrocytoma cells transfected with GPCR22 DNA (Western Blot)", "assay_type": "cell-based", "settings": "guanosine 300 μM, compared to non-GPCR22-transfected 1321N1 cells", "method": "A full length cDNA clone of human GPCR22 was provided by Origene Technologies. Transient expression in the 1321N1 cell line was performed using a pCMV expression vector. cDNA fragments present in an expression vector (pCMV) is located downstream of a transcriptional promoter capable of driving heterologous gene expression in a variety of mammalian cells. 1321N1 cell lines were transiently transfected with hGPCR22 cloned into pCMV expression vectors (Invitrogen). DNA transfection was performed by lipofection using Lipofectamine (Life Technologies). Twenty-four hours after transfection, the cells were lysed and assayed. RT-PCR analysis using GPCR22 forward: CTCATCTGCTGTTTCCACGA (SEQ. ID NO: 5) and GPCR22 reverse CGGATGTTAAGAGCCTGGAG (SEQ. ID NO: 6), was used to confirm the transfection of GPCR22 (G1) (labelled “1321N1 G1-pCMV Trans”) into 1321N1 cells as shown in FIG. 6a and evidenced by the band at 411 bp. Furthermore, the expression of GPCR22 (labelled “1321N1 G1-pCMV Trans”) in 1321N1 cells as compared to non-G1 transfected cells (labelled “1321N1”) was confirmed by Western Blot analysis using a rabbit polyclonal anti-GPCR22 antibody (NovateinBio, SH-A12465, MA, USA), as shown in FIG. 6b."}, "GPCR22 [4]": {"target": "T1, GPCR22", "experiment": "Guanosine binding in rat astrocytes after inhibition of GPCR22 by siRNA", "parameters": "endogenous in cells; host or cells: cultured rat (brain) astrocytes", "settings": "astrocytes with GPCR22 inhibited by siRNA; data not shown", "method": "Transient transfection of siRNAs for the rGPCR22 gene on rat cultured astrocytes and cell extracts were assayed for gene silencing 24 h after transfection was carried out. siRNA duplex specific for the rGPCR22 receptor were designed and chemically synthesized (www.Dharma.com), as well as their non specific control (NSC). Transfection of siRNAs for targeting endogenous genes was carried out using Oligofectamine (Invitrogen, Life Technologies) according to the manufacturer's instruction. Briefly, astrocytes at 60-70% confluence were cultured for 1 day in culture medium without antibiotics. 10 ml siRNA (20 mM) (Dharmacon research, Inc.) were diluted in 175 ml optimem for 5 min at room temperature. In the meantime, 3 ml oligofectamine was mixed in 15 ml optimem for 5 min. RNA interference was performed by mixing diluted oligofectamine and siRNA for 30 min at room temperature and was then added to the cells. The same scheme was performed on other samples using a siRNA-scrambled (NSP=non specific control). Cells were incubated at 37° C. for 24 hours. Twenty-four hours after transfection, the cells were lysed and assayed for gene silencing. The effect of GPCR22 silencing on MAPK and AKT phosphorylation, and cAMP assay was analysed. […]"}, "GPCR22 [5]": {"target": "T1, GPCR22", "experiment": "[3H]-guanosine binding to GPCR22 protein extracted from transfected S2 cells, competition with cold guanosine", "parameters": "expressed in transfected cells; host or cells: Drosophila Schneider 2 (S2) cells, pMT-V5-HisA vector, CuSO4 induction", "settings": "10 nM [3H]-guanosine, 25° C., 75 min, FIG. 14", "method": "The ability of GPCR22 receptor to bind to guanosine was assessed by performing competitive binding studies in the presence of cold guanosine. GPCR22 protein extracted from transfected […] cells were used in performing receptor-binding studies. The binding of [^3H]-guanosine (“hot” guanosine) to GPCR22 receptor was performed in triplicate in a final volume of 125 μl assay buffer (pH 7.4, 50 mM Tris-HCl, 1 mM EDTA, 5 mM MgCl2, 0.1 mM DTT, 0.1 mM PMSF, 100 mg/ml bacitracin and 5 mg/ml soybean trypsin inhibitor) containing 10 nM [^3H]-guanosine and the following concentrations of unlabeled guanosine (“cold” guanosine) (0.01 μM, 0.1 μM, 1.0 μM, 10 μM, 100 μM and 1 mM) and 50 ug of protein. The incubation of the GPCR22 receptor protein with ligands was carried out at 25° C. for 75 min. At the end of the incubation period, the unbound ligands were separated by vacuum filtration through Whatman GF/B filters. The bound ligand-protein was further washed 3 times with 5 ml of Tris-EDTA buffer, pH 7.4 (50 mM Tris-HCl, 1 mM EDTA). The radioactive filters were placed in plastic counting vials containing 4 ml of scintillation fluid, equilibrated overnight in a dark environment and counted the next day in a Beckman LS5000 liquid scintillation counter Model 1780. Non-specific binding was also calculated by the addition of excess guanosine (10 mM). […]"}, "GPCR22 [6]": {"target": "T1, GPCR22", "experiment": "Erk 1/2 and Akt phosphorylation by guanosine in cultured rat astrocytes treated with siRNA for GPCR22 (Western Blot)", "assay_type": "cell-based", "parameters": "endogenous in cells; host or cells: cultured rat (brain) astrocytes", "method": "Transient transfection of siRNAs for the rGPCR22 gene on rat cultured astrocytes and cell extracts were assayed for gene silencing 24 h after transfection was carried out. siRNA duplex specific for the rGPCR22 receptor were designed and chemically synthesized (www.Dharma.com), as well as their non specific control (NSC). Transfection of siRNAs for targeting endogenous genes was carried out using Oligofectamine (Invitrogen, Life Technologies) according to the manufacturer's instruction. Briefly, astrocytes at 60-70% confluence were cultured for 1 day in culture medium without antibiotics. 10 ml siRNA (20 mM) (Dharmacon research, Inc.) were diluted in 175 ml optimem for 5 min at room temperature. In the meantime, 3 ml oligofectamine was mixed in 15 ml optimem for 5 min. RNA interference was performed by mixing diluted oligofectamine and siRNA for 30 min at room temperature and was then added to the cells. The same scheme was performed on other samples using a siRNA-scrambled (NSP=non specific control). Cells were incubated at 37° C. for 24 hours. Twenty-four hours after transfection, the cells were lysed and assayed for gene silencing. The effect of GPCR22 silencing on MAPK and AKT phosphorylation, and cAMP assay was analysed."}, "[7]": {"tested_on": "GPCR22-transfected S2 cells", "experiment": "Actinomycin D-induced apoptosis, Caspase-3 flow cytometry, GPCR22-transfected S2 cells", "assay_type": "cell-based, Drosophila", "settings": "100 μM guanosine before 1 μM actinomycin D; FIGS. 11a-d", "method": "(§2) In order to determine whether guanosine produced any anti-apoptotic effects through a GPCR22-mediated mechanism, the effect of guanosine on apoptosis in GPCR22-transfected S2 cells was measured using flow cytometry techniques. Briefly, S2 cells were maintained in Schneider's Drosophila medium (GIBCO) supplemented with 10% heat-inactivated fetal calf serum, penicillin and streptomycin. For induction of apoptosis both receptor-transfected and non-transfected S2 cells were incubated in 1 μM actinomycin D (Sigma) for 6 hours at 25° C. Prior to the induction of apoptosis, to the S2 culture medium were either added 100 μM guanosine or the same amount of vehicle. After a 48 hr incubation with guanosine or vehicle, the cells were fixed with 4% PFA for fluorescent-immunostaining. The primary antibody Caspase-3 (10 μg/ml; R&D systems AF835) was incubated at room temperature for 1.5 hr and the secondary antibody (donkey anti rabbit Alexa488 (1:1800) was incubated at room temperature for 1 hr. After rinsing with PBS cells were re-suspend with “PBS+0.5% BSA” solution for flow cytometry reading using a 8 colour, […] (488 nm, 633 nm, 405 nm) FACS (Canto) machine."}, "non-transfected S2 cells [8]": {"tested_on": "non-transfected S2 cells", "experiment": "Actinomycin D-induced apoptosis, Caspase-3 flow cytometry, non-transfected S2 cells", "assay_type": "cell-based, Drosophila", "settings": "100 μM guanosine before 1 μM actinomycin D", "method": "as §2"}, "GPCR22 (G1) receptor": {"target": "T3, GPCR22 (G1) receptor (Homo sapiens, UniProt Q99680, C425R)", "T3 construct": "A full length cDNA clone of human GPCR22 was provided by Origene Technologies; expressed in transfected cells; host or cells: 1321N1 human astrocytoma cells", "T3 sequence (Q99680 whole entry C425R)": "as the sequence (Q99680 whole entry C425R) above", "experiment": "Intracellular cAMP in 1321N1 cell line transfected with GPCR22 (G1) receptor", "assay_type": "cell-based", "settings": "increasing concentrations of guanosine, absence and presence of PTX (200 ng/ml, 16 h); FIG. 7e"}},
  "note": "Where “and” joins values, the source holds several entries; their conditions need not be identical. Identical values can stand only once. Entries after “also recorded” stand apart in the source; their conditions may differ.",
  "data": [
    {"compound": "Nc1nc2c(ncn2[C@@H]2O[C@H](CO)[C@@H](O)[C@H]2O)c(=O)[nH]1", "note": "[guanosine]", "values": [
      {"measurement": "time of intracellular calcium increase after adding guanosine", "setting": "GPCR22 [1]; GPCR22-transfected S2 cells", "value": "≤ 2", "unit": "min"},
      {"measurement": "intracellular Ca^2+ level", "setting": "GPCR22 [1]; GPCR22-transfected S2 cells, FIGS. 12b, 12c, 15", "value": "elevate intracellular Ca^2+ levels; also recorded: significantly increases intracellular calcium level"},
      {"measurement": "guanosine dose giving peak intracellular calcium increase", "setting": "GPCR22 [1]; GPCR22-transfected S2 cells, low dose 0.1 μM to 10 μM, FIG. 13g", "value": 5, "unit": "µM"},
      {"measurement": "intracellular Ca^2+", "setting": "GPCR22 [1]; guanosine 25 μM, time point 1 min, FIG. 13e", "value": "significant increase"},
      {"measurement": "intracellular Ca^2+ fluorescence", "setting": "GPCR22 [1]; guanosine 100 μM, imaging at 0, 0.5, 1 and 2 min, FIGS. 13a-d", "value": "fast and transient fluorescence increase"},
      {"measurement": "intracellular Ca^2+ response across high doses", "setting": "GPCR22 [1]; high dose guanosine 25 μM-400 μM, time point 1 min, FIG. 13f", "value": "no significant difference"},
      {"measurement": "intracellular Ca^2+ level", "setting": "non-transfected S2 cells [2]", "value": "does not induce; also recorded: had no effect"},
      {"measurement": "phosphorylation of Erk 1/2", "setting": "GPCR22 [3]; FIG. 7c", "value": "resulted in phosphorylation of both Erk 1/2 and Akt"},
      {"measurement": "phosphorylation of Akt", "setting": "GPCR22 [3]; FIG. 7d", "value": "resulted in phosphorylation of both Erk 1/2 and Akt"},
      {"measurement": "guanosine binding", "setting": "GPCR22 [4]", "value": "abolish"},
      {"measurement": "Bmax", "setting": "GPCR22 [5]", "value": "1.05±0.12 pmol mg^−1 protein and 1.057 pmol mg^−1 protein"},
      {"measurement": "Kd", "setting": "GPCR22 [5]; single high affinity binding site", "value": "171 ± 39.8", "unit": "nM"},
      {"measurement": "activation of intracellular signaling by guanosine", "setting": "GPCR22 [6]; astrocytes with GPCR22 inhibited by siRNA, data not shown", "value": "abolish"},
      {"measurement": "phosphorylation of Erk 1/2", "setting": "GPCR22 [6]; guanosine 300 μM, astrocytes treated with si-RNA for GPCR22, FIG. 7a", "value": "inhibited"},
      {"measurement": "phosphorylation of Akt", "setting": "GPCR22 [6]; guanosine 300 μM, astrocytes treated with si-RNA for GPCR22, FIG. 7b", "value": "inhibited"},
      {"measurement": "protection from actinomycine-induced apoptotic cell death (Caspase-3)", "setting": "[7]", "value": "protected transfected S2 cells from apoptotic cell death"},
      {"measurement": "protection from actinomycine-induced apoptotic cell death (Caspase-3)", "setting": "non-transfected S2 cells [8]", "value": "had no effect"},
      {"measurement": "intracellular cAMP levels", "setting": "GPCR22 (G1) receptor", "value": "increase intracellular cAMP levels"}
    ]}
  ]
}
